Results taken from PubChem BioAssay (NCI).
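Protocol summary: plate cells (96-well), add compound at 5 concentrations, incubate 48 h, interpolate endpoints linearly. Definition used: TGI = concentration required for complete inhibition of growth.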

Assays:
Assay in all cases: NCI tumour cell line growth inhibition, 48 h
A498 renal = test system: A498 renal
MDA-MB-231 breast = test system: MDA-MB-231 breast
NCI-H23 lung = test system: NCI-H23 lung
NCI-H460 lung = test system: NCI-H460 lung
OVCAR-3 ovarian = test system: OVCAR-3 ovarian
PC-3 prostate = test system: PC-3 prostate
SF-539 CNS = test system: SF-539 CNS
SK-MEL-28 melanoma = test system: SK-MEL-28 melanoma
SK-OV-3 ovarian = test system: SK-OV-3 ovarian
SN12C renal = test system: SN12C renal
SW-620 colon = test system: SW-620 colon
UO-31 renal = test system: UO-31 renal

Measured: TGI

CCCCSC1=N/C(=C\c2ccc(N(C)C)cc2)C(Cl)=N1
> 100 µM: A498 renal | MDA-MB-231 breast | NCI-H23 lung | NCI-H460 lung | OVCAR-3 ovarian | PC-3 prostate | SF-539 CNS | SK-MEL-28 melanoma | SK-OV-3 ovarian | SN12C renal | SW-620 colon | UO-31 renal

Cc1nn(C(=O)c2ccncc2)c2c1C(c1ccc([N+](=O)[O-])cc1)SC(N)=N2 (stereo not given)
> 100 µM: A498 renal | MDA-MB-231 breast | NCI-H23 lung | NCI-H460 lung | OVCAR-3 ovarian | PC-3 prostate | SF-539 CNS | SK-MEL-28 melanoma | SK-OV-3 ovarian | SN12C renal | SW-620 colon | UO-31 renal

O=P(O)(O)CC1OC(CO)C(O)C1O (stereo not given)
> 100 µM: A498 renal | MDA-MB-231 breast | NCI-H23 lung | NCI-H460 lung | OVCAR-3 ovarian | PC-3 prostate | SF-539 CNS | SK-MEL-28 melanoma | SK-OV-3 ovarian | SN12C renal | SW-620 colon | UO-31 renal

Nc1ncnc2c1cnn2COCC(O)CO (stereo not given)
> 100 µM: A498 renal | MDA-MB-231 breast | NCI-H23 lung | NCI-H460 lung | OVCAR-3 ovarian | PC-3 prostate | SF-539 CNS | SK-MEL-28 melanoma | SK-OV-3 ovarian | SN12C renal | SW-620 colon | UO-31 renal

FC(F)(F)C1(c2ccccc2)SCc2nc3ccccc3n21 (stereo not given)
> 100 µM: A498 renal | MDA-MB-231 breast | NCI-H23 lung | NCI-H460 lung | OVCAR-3 ovarian | PC-3 prostate | SF-539 CNS | SK-MEL-28 melanoma | SK-OV-3 ovarian | SN12C renal | SW-620 colon | UO-31 renal
